The IC50 is the concentration that gives 50% inhibition.

Common to all, as to format: cell-based
For assay [1], the target named is hKv1.3 (Homo sapiens, UniProt P22001). The experiment in a line: cell-based. The settings on record: Kv1.3 (IWQ) IC50 (nM, Avg).
Assay [2] deals with IL-2 secretion from T cells in human whole blood. The settings on record: read-out: WB (IL-2) IC50 (nM, Avg).
Assay [3] relates to IFN-g secretion from T cells in human whole blood. The settings on record: read-out: WB (IFNg) IC50 (nM, Avg).

hKv1.3, sequence (P22001 whole entry): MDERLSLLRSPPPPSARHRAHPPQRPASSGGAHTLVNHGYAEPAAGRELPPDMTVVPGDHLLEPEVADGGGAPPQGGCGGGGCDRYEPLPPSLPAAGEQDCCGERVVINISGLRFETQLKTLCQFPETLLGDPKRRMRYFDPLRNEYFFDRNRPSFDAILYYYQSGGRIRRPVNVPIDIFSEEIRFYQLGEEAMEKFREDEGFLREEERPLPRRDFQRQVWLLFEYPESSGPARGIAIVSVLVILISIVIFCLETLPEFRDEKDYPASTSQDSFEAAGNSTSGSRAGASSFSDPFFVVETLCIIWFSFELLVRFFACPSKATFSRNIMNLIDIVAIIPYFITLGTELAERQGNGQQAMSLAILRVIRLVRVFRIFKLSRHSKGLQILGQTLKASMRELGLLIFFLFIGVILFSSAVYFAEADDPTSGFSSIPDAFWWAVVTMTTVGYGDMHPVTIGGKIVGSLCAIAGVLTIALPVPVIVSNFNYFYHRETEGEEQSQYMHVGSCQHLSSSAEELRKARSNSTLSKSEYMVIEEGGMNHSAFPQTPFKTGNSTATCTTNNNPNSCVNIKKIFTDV

Turning to `CC[C@H](C)[C@@H]1NC(=O)[C@@H](NC(=O)[C@H](CO)NC(=O)[C@@H](N)CCCNC(=N)N)CSSC[C@@H](C(N)=O)NC(=O)[C@H]([C@@H](C)O)NC(=O)CNC(=O)[C@@H]2CSSC[C@@H]3NC(=O)[C@H](CCCCN)NC(=O)[C@H](Cc4ccccc4)NC(=O)[C@H](C)NC(=O)[C@H]([C@@H](C)O)NC(=O)[C@H](CSSC[C@H](NC(=O)[C@H](Cc4ccccc4)NC(=O)[C@H](Cc4cccc5ccccc45)NC(=O)[C@H](CC(C)C)NC(=O)[C@H](CCCNC(=N)N)NC(=O)[C@H](Cc4ccc(O)cc4)NC(=O)[C@H](CCCCN)NC(=O)[C@H](CCSC)NC(=O)[C@H](CO)NC(=O)[C@H](Cc4c[nH]cn4)NC(=O)[C@H](CCCCN)NC3=O)C(=O)N[C@@H](CCCCN)C(=O)N[C@@H](CCCCN)C(=O)N[C@@H]([C@@H](C)O)C(=O)N2)NC(=O)[C@H](CCCNC(=N)N)NC(=O)[C@H](CO)NC(=O)[C@H](CCCCN)NC(=O)[C@@H]2CCCN2C(=O)[C@H]([C@@H](C)CC)NC(=O)[C@H]([C@@H](C)O)NC(=O)[C@H](CC(=O)O)NC1=O` [[Lys16,29; 1-Nal26]ShK-amide], the IC50 in assay [1] was 0.341 nM; in assay [2], 0.808 nM; in assay [3], 1.98 nM.

With `CC[C@H](C)[C@@H]1NC(=O)[C@@H](NC(=O)[C@H](CO)NC(=O)[C@@H](N)CCCNC(=N)N)CSSC[C@@H](C(N)=O)NC(=O)[C@H]([C@@H](C)O)NC(=O)CNC(=O)[C@@H]2CSSC[C@@H]3NC(=O)[C@H](CCCCN)NC(=O)[C@H](Cc4ccccc4)NC(=O)[C@H](C)NC(=O)[C@H]([C@@H](C)O)NC(=O)[C@H](CSSC[C@H](NC(=O)[C@H](Cc4ccccc4)NC(=O)[C@H](CO)NC(=O)[C@H](CC(C)C)NC(=O)[C@H](CCCNC(=N)N)NC(=O)[C@H](Cc4ccc(O)cc4)NC(=O)[C@H](CCCCN)NC(=O)[C@H](CCSC)NC(=O)[C@H](CO)NC(=O)[C@H](Cc4c[nH]cn4)NC(=O)[C@H](CCCCN)NC3=O)C(=O)N[C@@H](CCCCN)C(=O)N[C@@H](CCCNC(=N)N)C(=O)N[C@@H]([C@@H](C)O)C(=O)N2)NC(=O)[C@H](CCCNC(=N)N)NC(=O)[C@H](CO)NC(=O)[C@H](CCCCN)NC(=O)[C@@H]2CCCN2C(=O)[C@H]([C@@H](C)CC)NC(=O)[C@H]([C@@H](C)O)NC(=O)[C@H](CC(=O)O)NC1=O` [[Lys16,29; Arg30]ShK-amide], the figures for the IC50 in assay [1], in assay [2] and in assay [3] were 0.131 nM, 0.339 nM and 0.281 nM, respectively.

In the case of `CCCC[C@@H]1NC(=O)[C@H](CO)NC(=O)[C@H](Cc2c[nH]cn2)NC(=O)[C@H](CCCCN)NC(=O)[C@@H]2CSSC[C@@H]3NC(=O)[C@H]([C@@H](C)O)NC(=O)[C@H](CCCNC(=N)N)NC(=O)[C@H](CCCCN)NC(=O)[C@H](CSSC[C@H](NC(=O)[C@H](CCCNC(=N)N)NC(=O)[C@H](CO)NC(=O)[C@H](CCCCN)NC(=O)[C@@H]4CCCN4C(=O)[C@H]([C@@H](C)CC)NC(=O)[C@H]([C@@H](C)O)NC(=O)[C@H](CC(=O)O)NC(=O)[C@H]([C@@H](C)CC)NC(=O)[C@@H](NC(=O)[C@H](CO)NC(=O)[C@@H](N)CCCNC(=N)N)CSSC[C@@H](C(N)=O)NC(=O)[C@H]([C@@H](C)O)NC(=O)CNC3=O)C(=O)N[C@@H]([C@@H](C)O)C(=O)N[C@@H](C)C(=O)N[C@@H](Cc3ccccc3)C(=O)N[C@@H](CCCCN)C(=O)N2)NC(=O)[C@H](Cc2ccccc2)NC(=O)[C@H](CO)NC(=O)[C@H](CC(C)C)NC(=O)[C@H](CCCNC(=N)N)NC(=O)[C@H](Cc2ccc(O)cc2)NC(=O)[C@H](CCCCN)NC1=O` [[Lys16,29; Nle21,Arg30]ShK-amide], the IC50 in assay [1] was found to be 0.484 nM; in assay [2], 1.72 nM; in assay [3], 2.84 nM.

`CC[C@H](C)[C@@H]1NC(=O)[C@@H](NC(=O)[C@H](CO)NC(=O)[C@@H](N)CCCNC(=N)N)CSSC[C@@H](C(N)=O)NC(=O)[C@H]([C@@H](C)O)NC(=O)CNC(=O)[C@@H]2CSSC[C@@H]3NC(=O)[C@H](CCCCN)NC(=O)[C@H](Cc4ccccc4)NC(=O)[C@H](C)NC(=O)[C@H]([C@@H](C)O)NC(=O)[C@H](CSSC[C@H](NC(=O)[C@H](Cc4c[nH]c5ccccc45)NC(=O)[C@H](CO)NC(=O)[C@H](CC(C)C)NC(=O)[C@H](CCCNC(=N)N)NC(=O)[C@H](Cc4ccc(O)cc4)NC(=O)[C@H](CCCCN)NC(=O)[C@H](CCSC)NC(=O)[C@H](CO)NC(=O)[C@H](Cc4c[nH]cn4)NC(=O)[C@H](CCCCN)NC3=O)C(=O)N[C@@H](CCCCN)C(=O)N[C@@H](CCCCN)C(=O)N[C@@H]([C@@H](C)O)C(=O)N2)NC(=O)[C@H](CCCNC(=N)N)NC(=O)[C@H](CO)NC(=O)[C@H](CCCCN)NC(=O)[C@@H]2CCCN2C(=O)[C@H]([C@@H](C)CC)NC(=O)[C@H]([C@@H](C)O)NC(=O)[C@H](CC(=O)O)NC1=O` [[Lys16,29;Trp27]ShK-amide]: the IC50 was 0.121 nM in assay [1], 0.264 nM in assay [2] and 0.606 nM in assay [3].

For the compound `CC[C@H](C)[C@@H]1NC(=O)[C@@H](NC(=O)[C@H](CO)NC(=O)[C@@H](N)CCCNC(=N)N)CSSC[C@@H](C(N)=O)NC(=O)[C@H]([C@@H](C)O)NC(=O)CNC(=O)[C@@H]2CSSC[C@@H]3NC(=O)[C@H](CCCCN)NC(=O)[C@H](Cc4ccccc4)NC(=O)[C@H](C)NC(=O)[C@H]([C@@H](C)O)NC(=O)[C@H](CSSC[C@H](NC(=O)[C@H](Cc4ccccc4)NC(=O)[C@H](Cc4ccc(O)cc4)NC(=O)[C@H](CC(C)C)NC(=O)[C@H](CCCNC(=N)N)NC(=O)[C@H](Cc4ccc(O)cc4)NC(=O)[C@H](CCCCN)NC(=O)[C@H](CCSC)NC(=O)[C@H](CO)NC(=O)[C@H](Cc4c[nH]cn4)NC(=O)[C@H](CCCCN)NC3=O)C(=O)N[C@@H](CCCCN)C(=O)N[C@@H](CCCCN)C(=O)N[C@@H]([C@@H](C)O)C(=O)N2)NC(=O)[C@H](CCCNC(=N)N)NC(=O)[C@H](CO)NC(=O)[C@H](CCCCN)NC(=O)[C@@H]2CCCN2C(=O)[C@H]([C@@H](C)CC)NC(=O)[C@H]([C@@H](C)O)NC(=O)[C@H](CC(=O)O)NC1=O` [[Lys16,29;Tyr26]ShK-amide], the IC50 in assay [1] amounted to 0.084 nM; in assay [2], 1.04 nM; in assay [3], 0.754 nM.

Consider `CC[C@H](C)[C@@H]1NC(=O)[C@@H](NC(=O)[C@H](CO)NC(=O)[C@@H](N)CCCNC(=N)N)CSSC[C@@H](C(N)=O)NC(=O)[C@H]([C@@H](C)O)NC(=O)CNC(=O)[C@@H]2CSSC[C@@H]3NC(=O)[C@H](CCCCN)NC(=O)[C@H](Cc4ccccc4)NC(=O)[C@H](C)NC(=O)[C@H]([C@@H](C)O)NC(=O)[C@H](CSSC[C@H](NC(=O)[C@H](Cc4ccc(O)cc4)NC(=O)[C@H](CO)NC(=O)[C@H](CC(C)C)NC(=O)[C@H](CCCNC(=N)N)NC(=O)[C@H](Cc4ccc(O)cc4)NC(=O)[C@H](CCCCN)NC(=O)[C@H](CCSC)NC(=O)[C@H](CO)NC(=O)[C@H](Cc4c[nH]cn4)NC(=O)[C@H](CCCCN)NC3=O)C(=O)N[C@@H](CCCCN)C(=O)N[C@@H](CCCCN)C(=O)N[C@@H]([C@@H](C)O)C(=O)N2)NC(=O)[C@H](CCCNC(=N)N)NC(=O)[C@H](CO)NC(=O)[C@H](CCCCN)NC(=O)[C@@H]2CCCN2C(=O)[C@H]([C@@H](C)CC)NC(=O)[C@H]([C@@H](C)O)NC(=O)[C@H](CC(=O)O)NC1=O` [[Lys16,29;Tyr27]ShK-amide], for which the IC50 in assay [1] stood at 0.042 nM; in assay [2], 0.738 nM; in assay [3], 1.17 nM.
